From ChEMBL document CHEMBL5523739, “NN1213 - A Potent, Long-Acting, and Selective Analog of Human Amylin” (J Med Chem, 2024)

Experiments:
Rattus norvegicus [1] = assay: Appetite suppressing activity in rat assessed as reduction in food intake at 30 nmol/kg, sc measured upto 24 hrs relative to control; type: functional; set-up: scale not given: the % may be the effect or the level left
Rattus norvegicus [2] = assay: Appetite suppressing activity in rat assessed as reduction in food intake at 30 nmol/kg, sc measured for 24 to 48 hrs relative to control; type: functional; set-up: scale not given: the % may be the effect or the level left; conditions: time 24-48 hrs
Homo sapiens [3] = organism: Homo sapiens; assay: Selectivity ratio of EC50 for human CTR expressed in Baby hamster kidney cells to EC50 for human AMY3R complex of CTR/RAMP3 expressed in Baby hamster kidney cells; type: cell-based
Rattus norvegicus [4] = organism: Rattus norvegicus; assay: Selectivity ratio of EC50 for rat CTR expressed in Baby hamster kidney cells to EC50 for rat AMY3R complex of CTR/RAMP3 expressed in Baby hamster kidney cells; type: cell-based
Homo sapiens [5] = organism: Homo sapiens; assay: Selectivity ratio of IC50 for human CTR expressed in Baby hamster kidney cell membrane to IC50 for human AMY3R complex of CTR/RAMP3 expressed in Baby hamster kidney cell membrane; type: cell-based
Rattus norvegicus [6] = organism: Rattus norvegicus; assay: Selectivity ratio of IC50 for rat CTR expressed in Baby hamster kidney cell membrane to IC50 for rat AMY3R complex of CTR/RAMP3 expressed in Baby hamster kidney cell membrane; type: cell-based

| SMILES | Activity (Rattus norvegicus [1]) [%] | Activity (Rattus norvegicus [2]) [%] | Ratio EC50 (Homo sapiens [3]) | Ratio EC50 (Rattus norvegicus [4]) | Ratio IC50 (Homo sapiens [5]) | Ratio IC50 (Rattus norvegicus [6]) |
| --- | --- | --- | --- | --- | --- | --- |
| CC[C@H](C)[C@H](NC(=O)[C@H](C)NC(=O)CNC(=O)[C@H](Cc1ccccc1)NC(=O)[C@H](CC(N)=O)NC(=O)[C@@H]1CCCN1C(=O)[C@H](CO)NC(=O)[C@H](CO)NC(=O)[C@H](Cc1c[nH]cn1)NC(=O)[C@H](CCCNC(=N)N)NC(=O)[C@H](CC(C)C)NC(=O)[C@H](Cc1ccccc1)NC(=O)[C@H](CC(=O)O)NC(=O)[C@H](C)NC(=O)[C@H](CC(C)C)NC(=O)[C@H](CCCNC(=N)N)NC(=O)[C@H](CCC(N)=O)NC(=O)[C@@H](NC(=O)[C@H](C)NC(=O)[C@@H]1CSSC[C@H](NC(=O)[C@@H](N)CCCCN)C(=O)N[C@@H](CC(N)=O)C(=O)N[C@@H]([C@@H](C)O)C(=O)N[C@@H](C)C(=O)N[C@@H]([C@@H](C)O)C(=O)N1)[C@@H](C)O)C(=O)N1CCC[C@H]1C(=O)N[C@@H](CO)C(=O)N[C@@H](CO)C(=O)N[C@H](C(=O)N[C@@H](CC(N)=O)C(=O)N[C@H](C(=O)NCC(=O)N[C@@H](CO)C(=O)N[C@@H](CC(=O)O)C(=O)N[C@H](C(=O)N[C@@H](Cc1ccc(O)cc1)C(N)=O)[C@@H](C)O)C(C)C)[C@@H](C)O | 72 | 62 |  |  |  |  |
| CC[C@H](C)[C@H](NC(=O)[C@H](C)NC(=O)CNC(=O)[C@H](Cc1ccccc1)NC(=O)[C@H](CC(N)=O)NC(=O)[C@@H]1CCCN1C(=O)[C@H](CO)NC(=O)[C@H](CO)NC(=O)[C@H](Cc1c[nH]cn1)NC(=O)[C@H](CCCNC(=N)N)NC(=O)[C@H](CC(C)C)NC(=O)[C@H](Cc1ccccc1)NC(=O)[C@H](CC(=O)O)NC(=O)[C@H](C)NC(=O)[C@H](CC(C)C)NC(=O)[C@H](CCCNC(=N)N)NC(=O)[C@H](CCC(N)=O)NC(=O)[C@@H](NC(=O)[C@H](C)NC(=O)[C@@H]1CSSC[C@H](NC(=O)[C@@H](N)CCCCN)C(=O)N[C@@H](CC(N)=O)C(=O)N[C@@H]([C@@H](C)O)C(=O)N[C@@H](C)C(=O)N[C@@H]([C@@H](C)O)C(=O)N1)[C@@H](C)O)C(=O)N1CCC[C@H]1C(=O)N[C@@H](CO)C(=O)N[C@H](CO)C(=O)N[C@H](C(=O)N[C@@H](CC(N)=O)C(=O)N[C@H](C(=O)NCC(=O)N[C@@H](CO)C(=O)N[C@@H](CC(=O)O)C(=O)N[C@H](C(=O)N[C@@H](Cc1ccc(O)cc1)C(N)=O)[C@@H](C)O)C(C)C)[C@@H](C)O |  |  | 15 | 1340 | 55 | 447 |
